Experiments:
B16 melanoma 4A5 cell = assay: Whitening test: theophylline-induced melanine production in B16 melanoma 4A5 cells; format: cell-based, mouse; settings: sample at a concentration of 100 μM or less; theophylline-induced melanine production; 3 days culture; N=4
Outline: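 Murine B16 4A5 cells were grown 24 h, then cultured 3 days in D-MEM with 10% FBS, 0.2 mM theophylline and sample. Melanin was dissolved in 2N NaOH at 60° C for 15 min, read at 450 nm against a synthetic-melanin standard and normalised to BCA protein. Suppression % = [1−(A−B)/(C−B)]×100 versus normal and control groups, with samples at ≤100 μM, N=4.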

[1] = Stability Test 1: 2% aqueous solution, pH7, room temperature, 4 weeks (residual rate, odor, coloration); format: physicochemical
Method: (§1) Aqueous solutions (2%) of various test samples were adjusted to pH7 with a dilute sodium hydroxide aqueous solution, and charged into 50 mL screw tubes, and the tubes were sealed and stored at room temperature for 4 weeks. Thereafter, HPLC measurement were performed (using liquid chromatography manufactured by Tosoh Corp.) and the residual rate was obtained based on the peak area. The residual rate, odor(odor change) and degree of coloration were evaluated based on the following methods and standards, and the results are shown in Table 41.
◯: 80% or more and less than 90%
Δ: 60% or more and less than 80%
X: 20% or more and less than 60%
It was evaluated according to the following criterion by 10 panelists.
Based on the evaluation results, classification was conducted as shown below.
◯: total point of 10 panelists is 25 or more
Δ: total point of 10 panelists is 16 to 24
X: total point of 10 panelists is 15 or less
3: almost no change as compared with that immediately after preparation
2: coloration is observed as compared with that immediately after preparation
1: intense coloration is observed as compared with that immediately after preparation

[2] = Stability Test 2: 2% aqueous solution, pH7, 50° C., 4 weeks (residual rate, odor, coloration); format: physicochemical
Method: as §1
The same test as in Test Example 2 was carried out excepting that the sample was stored at 50° C. for 4 weeks instead of storing at room temperature for 4 weeks.

[3] = Moisturizing test: moisturizing effect by water retention force; format: physicochemical; settings: for moisturizing effect (in words): conclusion from Table 43, compared with ascorbic acid
Method: A sample shown later was dried, and the dried sample was spread in an amount of about 0.4 g (this weight is represented by W0) on the bottom of a weighing bottle (diameter: 3.6 cm, height excluding lid: 1.8 cm) so as to give uniform thickness. The sample contained in the weighing bottle was allowed to stand still in a constant humidity and constant temperature vessel (ENVIROS KCL-1000, TOKYO RIKAKIKAI CO, LTD) under environments of 25° C. and 65% RH. The weight was measured periodically, waiting until sufficient moisture absorption to attain equilibrium of weight increase (about 48 hours). Thereafter, the sample was transferred to under environments of 25° C. and 20% RH (in sealed vessel containing a saturated CH3COOK aqueous solution filled in the bottom part). From the weight after 24 hours (this weight is represented by W1), the amount of retained water per 1 g of the dried sample was calculated according to the following formula. (W1−W0)/W0
From the water amount thus calculated, the moisturizing effect was judged based on the following judging criterion, and the results are shown in Table 43.
Three compounds: 2,3-di-O-glyceryl ascorbic acid, 2,3-di-O-phenylglyceryl ascorbic acid, and glycerin, and
Six compounds: ascorbic acid, ascorbic acid glucoside, 2-O-glyceryl ascorbic acid, 3-O-glyceryl ascorbic acid, 3-O-butylglyceryl ascorbic acid and 3-O-octylglyceryl ascorbic acid, which were adjusted to pH7 with a dilute sodium hydroxide aqueous solution and concentrated.
◯: 25 mg or more and less than 40 mg
Δ: 10 mg or more and less than 25 mg

[4] = system: Normal human dermal fibroblasts; assay: Collagen production of human fibroblast (Sircol collagen assay, 100 μM, 48 hours); format: cell-based; settings: Homo sapiens, Fibroblast, cultured 48 hours, N=4, read-out: Collagen production promoting effect (collagen production amount, % of control group)
Outline: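 Dermal fibroblasts pre-cultured 24 h, then exposed 48 h to sample at 100 μM in 5% FBS D-MEM at 37 °C, 5% CO2. Free collagen measured by Sircol assay, N=4, expressed as % of untreated control.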

[5] = system: Normal human dermal fibroblasts; assay: Collagen production of human fibroblast 2 (100 μM or 500 μM; 2, 4 and 7 days); format: cell-based; settings: for Collagen production amount in comparison with the control group (% value when the control group is 100%): Table 46, 100 μM or 500 μM (not stated which), average ± standard error, N=4
Method: Normal human dermal fibroblasts were regulated with a 10% (v/v) fetal bovine serum (manufactured by Roshe Diagnostics)-containing D-MEM so as to give a cell density of 2.5×10^4 cells/well, then, pre-incubation for 24 hours was performed on a 96-well plate. After the medium was removed, a sample regulated with a 5% (v/v) fetal bovine serum-containing D-MEM to a concentration of 100 μM was added to each well, then, cultured for 48 hours under 37° C. and 5% CO2. After completion of culturing, the amount of free collagen was measured using Sircol collagen assay kit (manufactured by Biocolor). The measurement was carried out at N=4.
Free collagen was measured under the same conditions as in Test Example 5 excepting that the concentration of each sample was 100 μM or 500 μM and culturing was carried out for 2 days, 4 days and 7 days. The measurement was carried out at N=4, and the average and standard error, in four test examples, of values of the collagen production amount in comparison with the control group (% value when the control group is 100%) are shown in Tables 46 and 47.

[6] = storage period 2 weeks, 10 panelists
[7] = storage period 4 weeks, 10 panelists

| SMILES | Whitening effect (melanine production suppressing rate) (B16 melanoma 4A5 cell) | Residual rate ([1]; storage period 0) | Coloration ([1]; storage period 0, 10 panelists) | Odor ([1]; storage period 0, 10 panelists) | Residual rate ([1]; storage period 2 weeks) | Coloration [1, 6] | Odor [1, 6] | Residual rate ([1]; storage period 4 weeks) | Coloration [1, 7] | Odor [1, 7] | Residual rate ([2]; storage period 0) | Coloration ([2]; storage period 0, 10 panelists) | Odor ([2]; storage period 0, 10 panelists) | Residual rate ([2]; storage period 2 weeks) | Coloration [2, 6] | Odor [2, 6] | Residual rate ([2]; storage period 4 weeks) | Coloration [2, 7] | Odor [2, 7] | activity at 100 µM [4] [%] | also measured |
| --- | --- | --- | --- | --- | --- | --- | --- | --- | --- | --- | --- | --- | --- | --- | --- | --- | --- | --- | --- | --- | --- |
| O=C1O[C@H]([C@@H](O)CO)C(OCC(O)CO)=C1OCC(O)CO (stereo partly shown) [Example 4, 2,3-di-O-glyceryl ascorbic acid] | + (20 to 40%:+) | ⊚ (⊚: 90% or more) | ◯ (◯: total point of 10 panelists is 25 or more) | ◯ (◯: total point of 10 panelists is 25 or more) | ⊚ (⊚: 90% or more) | ◯ (◯: total point of 10 panelists is 25 or more) | ◯ (◯: total point of 10 panelists is 25 or more) | ⊚ (⊚: 90% or more) | ◯ (◯: total point of 10 panelists is 25 or more) | ◯ (◯: total point of 10 panelists is 25 or more) | ⊚ (⊚: 90% or more) | ◯ (◯: total point of 10 panelists is 25 or more) | ◯ (◯: total point of 10 panelists is 25 or more) | ⊚ (⊚: 90% or more) | ◯ (◯: total point of 10 panelists is 25 or more) | ◯ (◯: total point of 10 panelists is 25 or more) | ⊚ (⊚: 90% or more) | ◯ (◯: total point of 10 panelists is 25 or more) | ◯ (◯: total point of 10 panelists is 25 or more) | 100 to 200 | moisturizing effect (in words) [3]: excellent moisturizing effect by far than ascorbic acid; Collagen production amount in comparison with the control group (% value when the control group is 100%) ([5]; culturing period 2 days): 161 ± 8%; Collagen production amount in comparison with the control group (% value when the control group is 100%) ([5]; culturing period 4 days): 171 ± 7%; Collagen production amount in comparison with the control group (% value when the control group is 100%) ([5]; culturing period 7 days): 209 ± 27% |
| O=C1O[C@H]([C@@H](O)CO)C(O)=C1O [ascorbic acid] | ± (<20%:±) | ⊚ (⊚: 90% or more) | ◯ (◯: total point of 10 panelists is 25 or more) | ◯ (◯: total point of 10 panelists is 25 or more) | ◯ (◯: 80% or more and less than 90%) | Δ (Δ: total point of 10 panelists is 16 to 24) | Δ (Δ: total point of 10 panelists is 16 to 24) | X (X: 20% or more and less than 60%) | X (X: total point of 10 panelists is 15 or less) | X (X: total point of 10 panelists is 15 or less) | ◯ (◯: 80% or more and less than 90%) | ◯ (◯: total point of 10 panelists is 25 or more) | ◯ (◯: total point of 10 panelists is 25 or more) | X (X: 20% or more and less than 60%) | Δ (Δ: total point of 10 panelists is 16 to 24) | Δ (Δ: total point of 10 panelists is 16 to 24) | X (X: 20% or more and less than 60%) | X (X: total point of 10 panelists is 15 or less) | X (X: total point of 10 panelists is 15 or less) | 100 to 200 | Judgement of moisturizing effect (water amount) [3]: X (X: less than 10 mg); collagen production promoting effect over time (in words) ([5]; 100 μM or 500 μM, culturing 2, 4 and 7 days): lowers over time; Collagen production amount in comparison with the control group (% value when the control group is 100%) ([5]; culturing period 2 days): 252 ± 12%; Collagen production amount in comparison with the control group (% value when the control group is 100%) ([5]; culturing period 4 days): 182 ± 9%; Collagen production amount in comparison with the control group (% value when the control group is 100%) ([5]; culturing period 7 days): 139 ± 14% |
| O=C1O[C@H]([C@@H](O)CO)C(O)=C1OCC(O)CO (stereo partly shown) [Example 3, 2-O-glyceryl ascorbic acid] | + (20 to 40%:+) | ⊚ (⊚: 90% or more) | ◯ (◯: total point of 10 panelists is 25 or more) | ◯ (◯: total point of 10 panelists is 25 or more) | ⊚ (⊚: 90% or more) | ◯ (◯: total point of 10 panelists is 25 or more) | ◯ (◯: total point of 10 panelists is 25 or more) | ⊚ (⊚: 90% or more) | ◯ (◯: total point of 10 panelists is 25 or more) | ◯ (◯: total point of 10 panelists is 25 or more) | ⊚ (⊚: 90% or more) | ◯ (◯: total point of 10 panelists is 25 or more) | ◯ (◯: total point of 10 panelists is 25 or more) | ⊚ (⊚: 90% or more) | ◯ (◯: total point of 10 panelists is 25 or more) | ◯ (◯: total point of 10 panelists is 25 or more) | ⊚ (⊚: 90% or more) | ◯ (◯: total point of 10 panelists is 25 or more) | ◯ (◯: total point of 10 panelists is 25 or more) | 100 to 200 | moisturizing effect (in words) [3]: excellent moisturizing effect by far than ascorbic acid; Collagen production amount in comparison with the control group (% value when the control group is 100%) ([5]; culturing period 2 days): 226 ± 10%; Collagen production amount in comparison with the control group (% value when the control group is 100%) ([5]; culturing period 4 days): 193 ± 6%; Collagen production amount in comparison with the control group (% value when the control group is 100%) ([5]; culturing period 7 days): 258 ± 22% |

Source: patent publication US8163939B2, “Ascorbic acid derivative or salt thereof, production method thereof, and cosmetic” (Seikwa Kasei Company, Limited, priority 2007, dated 2012)
